Results as given in PMC12383972, “Oral Pharmacokinetic Evaluation of a Microemulsion-Based Delivery System for Novel A190 Prodrugs” (Biomolecules, 2025).
Converted amounts (≈) assume the structure as drawn. Like-named read-outs stand apart in the source and are kept apart here.

Key:
hERG = system: hERG; design: method as in PMID 32582345; settings: preclinical assessment; cited from earlier work
CYP450 = system: CYP450; design: method as in PMID 32582345; settings: preclinical assessment; cited from earlier work
HepG2 cells [1] = system: HepG2 cells; design: method as in PMID 39879378; settings: HepG2, in 0.2% DMSO, 24 h and 48 h; cited from earlier work
PPARα = system: PPARα; design: method as in PMID 32096640, PMID 39961437; settings: cited from earlier work
[2] = design: method as in PMID 39879378; settings: PAMPA, cited from earlier work
[3] = design: method as in PMID 32582345; settings: preclinical assessment; cited from earlier work
Caco-2 cells [4] = system: Caco-2 cells; design: method as in PMID 39879378; settings: Caco-2, in 0.2% DMSO, 24 h and 48 h; cited from earlier work
[5] = Chemical hydrolysis stability in PBS pH 7.4; assay type: physicochemical; settings: PBS pH 7.4, 37 °C, 100 μM
Procedure: Chemical hydrolysis stability of each prodrug was assessed in a physiological pH 7.4 using phosphate buffered saline solution (PBS) as previously described. After preincubation of PBS solution at 37 °C for 5 min, stock solution of each prodrug (10 mM) was spiked to a final concentration of 100 μM. The samples were then incubated at 37 °C on a temperature-controlled orbital shaker operating at 200 rpm. At predetermined time points, 200 μL of incubation mixture was withdrawn and quenched with 100 μL of internal standard (0.5 μg/mL of fenofibric acid) and 700 μL ice cold ACN. Drug concentration was analyzed using HPLC-UV method as described earlier to assess the amount of prodrug recovered compared to the starting timepoint.

[6] = Bioconversion of prodrugs in rabbit plasma; assay type: in vitro ADME; settings: 37 °C; for half-life at 100 μM / Prodrug bioconversion half-life (Rabbit plasma): 100 μM prodrug; for half-life at 100 μM: pooled rabbit plasma; for Prodrug bioconversion half-life (Rabbit plasma): Figure 3E
Procedure: (§1) Conversion of the respective prodrugs to the parent drug A190 was assessed in pooled rat and rabbit plasma. Following pre-incubation of plasma at 37 °C for 5 min, stock solution of each prodrug (10 mM) was spiked into the plasma to reach a final concentration of 100 μM. The mixture was incubated at 37 °C, 200 rpm on a temperature-controlled orbital shaker. Incubation mixture (200 μL) was withdrawn at pre-determined time points, and the reaction was terminated by the addition of 700 μL of ice cold ACN. 100 μL of internal standard (0.5 μg/mL of fenofibric acid) was then spiked, and the samples were vortexed and centrifuged at 10,000× g for 10 min. The resulting supernatants were collected and filtered using PTFE filters and injected into HPLC-UV system. The LC system was a reverse phased Shimadzu Prominence (Kyoto, Japan) using a Pursuit 5 C18 column. Isocratic separation was performed with mobile phase consisting of ACN/water (80/20 v/v) containing 0.1% trifluoroacetic acid and monitored at a UV detection of 227 nm.

[7] = Bioconversion of prodrugs in rat plasma; assay type: in vitro ADME; settings: 37 °C; for half-life at 100 μM / Prodrug bioconversion half-life (Rat plasma): 100 μM prodrug; for half-life at 100 μM: pooled rat plasma; for Prodrug bioconversion half-life (Rat plasma): Figure 3E
Procedure: as §1

[8] = Parallel artificial membrane permeability assay (PAMPA); assay type: in vitro ADME; settings: PBS pH 6.8, 200 µg/mL donor, 5 h, room temperature
Procedure: Parallel artificial membrane permeability assay (PAMPA) is a widely used screening method to predict the passive intestinal permeability using a phospholipid coated lipophilic membrane which simulates the properties of the intestinal wall. The in vitro intestinal membrane permeability of free A190-PD-60 (dispersed in PBS pH 6.8), A190-PD-60 dispersion (dispersed in a mixture of 1:1 v/v methylcellulose/Tween 80), and A190-PD-60-ME were evaluated using a PAMPA plate (BD BioSciences, San Jose, CA, USA), as described previously. The samples for donor chamber were prepared by diluting free A190-PD-60, A190-PD-60 dispersion, and A190-PD-60-ME with PBS pH 6.8 to a final concentration of 200 µg/mL. […] The concentration of A190-PD-60 which permeated into the acceptor chamber was measured using a HPLC-UV system. The effective permeability coefficient (Pe) was then calculated using the following equation:Pe = −ln(1 − CA[t]/Cequilibrium)/(A × [1/VD + 1/VA] × t)(1) where Pe is the permeability (cm/s), A is the effective filter area (0.228 cm^2), VD is the volume of the donor well (0.2 mL), VA is the volume of the receptor well (0.3 mL), t is the total time of incubation in seconds, CA(t) denotes the concentration of drug in the receptor well at time t, and Cequilibrium represents (CD[t] × VD + CA[t] × VA)/(VD + VA), where CD(t) denotes the concentration of drug in the donor well at time t.

Aqueous solubility = assay type: physicochemical; settings: thermodynamic from solid; deionized water, 25 °C, 48 h equilibrium
Procedure: Aqueous solubility of each prodrug was assessed using deionized water. In brief, an excess amount of each prodrug was placed in a stoppered vial containing 1 mL of water. Each sample was vortexed and kept in an isothermal shaker maintained at 25 ± 1.0 °C to reach equilibrium for 48 h. The resulting mixture was centrifuged at 4000× g for 15 min, and the supernatant was collected and diluted with ACN followed by filtration with a 0.22 μm filter. The drug concentrations for all prodrugs were measured using HPLC-UV. Chromatographic separation was achieved using an Agilent Pursuit XRs 5 C18 column (250 × 4.6 mm) with a UV-detector system. The mobile phase consisted of ACN and water, both containing 0.1% trifluoroacetic acid in a ratio of 80:20 v/v, with a flow rate of 1 mL/min at 25 °C.

HepG2 cells [9] = assay: MTT cell viability assay, HepG2; assay type: cell-based, human; settings: HepG2, 50 µM, 24 h and 48 h
Procedure: (§2) To evaluate the cytotoxicity of free A190-PD-60 (in 0.2% DMSO in DMEM), vehicle microemulsion, and A190-PD-60-ME against Caco-2 cells and HepG2 cells, an MTT assay using 3-(4,5-dimethylthiazol-2-yl)-2,5-diphenyltetrazolium bromide was performed as described before. Caco-2 and HepG2 cells were first cultured in DMEM supplemented with 10% FBS, penicillin (100 U/mL), and streptomycin (100 μg/mL) at 37 °C in a 5% CO2 humidified incubator. Upon reaching confluence, cells were trypsinized and seeded at 10 × 10^4 cells/well in 96-well plates. After 48 h, the medium was replaced with fresh dilutions of free A190-PD-60, vehicle microemulsion, or A190-PD-60-ME (0.1–50 µM) in DMEM. Controls included untreated cells and cells treated with 0.2% DMSO in DMEM. Following 24 h and 48 h incubation, the medium was replaced with 100 µL of MTT solution (5 mg/mL in PBS) and incubated for 3 h. The supernatant was then removed, and formazan crystals were dissolved in 100 µL DMSO. Absorbance was measured at 540 nm, and cell viability (%) was calculated as (OD of samples/OD of control) × 100.

[10] = Solubility in microemulsion excipients; assay type: physicochemical; settings: for solubility at 72 h: thermodynamic from solid, 25 °C
Procedure: Enhancement of drug solubility is the primary factor considered when evaluating ME components. To determine the solubility of A190-PD-60, an excess amount of A190-PD-60 was added to 1 g of each of the tested oils, surfactants and co-surfactants in glass vials with stoppers. A190-PD-60 and excipients were mixed together and vortexed. The mixtures were kept at a temperature of 25 ± 1.0 °C in an isothermal shaker for 72 h to achieve equilibrium. The mixtures were then centrifuged at 10,000× g for 15 min. The resulting supernatants were filtered using […] membrane filters and concentrations of A190-PD-60 in the filtrates were quantified via HPLC-UV analysis. Oils, emulsifiers, and co-emulsifiers with the highest solubilities were chosen for further miscibility analysis. For this, 2 mL of the selected excipients were mixed and vortexed for 10 min, then allowed to equilibrate for 1 h. The resulting mixtures were visually inspected for transparency and phase separation.

Caco-2 cells [11] = assay: MTT cell viability assay, Caco-2; assay type: cell-based, human; settings: Caco-2, 50 µM, 24 h and 48 h
Procedure: as §2

[12] = BCS classification from solubility and PAMPA permeability; settings: predicted from low solubility and low permeability

Compound: Cc1cc(CNc2cccc(C(=O)O)c2)ccc1OCc1ccc(F)cc1 [A190, 3-((4-((4-fluorobenzyl)oxy)-3-methylbenzyl)amino)benzoic acid]
- hERG-related cardiotoxicity (hERG): absence
- CYP450 liability (CYP450): absence
- concentration up to which safe (HepG2 cells [1]): < 50 µM
- subtype selectivity (PPARα; PPAR-α over γ/δ isoforms): > 2700 fold
- EC50 (PPARα; PPARα agonism): < 0.04 µM
- effective permeability (Pe), dispersion form ([2]; dispersion form): 0.13 ± 0.04 × 10^−6 cm/s
- effective permeability (Pe), A190 in PBS ([2]; in PBS): 0.09 ± 0.02 × 10^−6 cm/s
- microsomal metabolic stability [3]: acceptable
- concentration up to which safe (Caco-2 cells [4]): < 50 µM

Compound: COC(=O)c1cccc(NCc2ccc(OCc3ccc(F)cc3)c(C)c2)c1 [A190-PD-9, Methyl 3-((4-((4-Fluorobenzyl)oxy)-3-Methylbenzyl)amino)benzoate]
- drug remaining at 2 h [5]: about 40%
- half-life at 100 μM [6]: 7.2 h
- original concentration retained after 120 min in rabbit plasma ([6]; 100 μM, 120 min): ≥ 80%
- Prodrug bioconversion half-life (Rabbit plasma) [6]: 7.2 h
- half-life at 100 μM [7]: 9.6 h
- original concentration retained after 120 min in rat plasma ([7]; 100 μM, 120 min): ≥ 80%
- Prodrug bioconversion half-life (Rat plasma) [7]: 9.6 h

Compound: CCOC(=O)c1cccc(NCc2ccc(OCc3ccc(F)cc3)c(C)c2)c1 [A190-PD-14, Ethyl 3-((4-((4-Fluorobenzyl)oxy)-3-Methylbenzyl)amino)benzoate]
- drug remaining at 2 h [5]: 10%
- half-life at 100 μM [6]: 8.2 h
- Prodrug bioconversion half-life (Rabbit plasma) [6]: 8.2 h
- half-life at 100 μM [7]: 2.6 h
- Prodrug bioconversion half-life (Rat plasma) [7]: 2.6 h

Compound: Cc1cc(CNc2cccc(C(=O)OCc3oc(=O)oc3C)c2)ccc1OCc1ccc(F)cc1 [A190-PD-60, (5-Methyl-2-oxo-1,3-dioxol-4-yl)methyl3-((4-((4-Fluorobenzyl)oxy)-3-methylbenzyl)amino)benzoate]
- Effective Permeability Across Artificial Membrane (Pe) [8]: < 0.1 ×10^−6, cm/s
- Effective Permeability Across Artificial Membrane (Pe) ([8]; listed as A190-PD-60 in PBS): BLD
- drug remaining at 2 h [5]: over 80%
- solubility at 48 h (Aqueous solubility): 1.4 ± 0.23 µg/mL (≈ 0.00293 mM)
- cytotoxicity at highest tested concentration (HepG2 cells [9]): no significant cytotoxicity
- half-life at 100 μM [6]: 0.5 h
- Prodrug bioconversion half-life (Rabbit plasma) [6]: 0.5 h
- half-life at 100 μM [7]: 0.3 h
- Prodrug bioconversion half-life (Rat plasma) [7]: 0.3 h
- solubility in Capryol 90 relative to Maisine oil [10]: 13.9 fold
- solubility in Capryol 90 relative to oleic acid [10]: 4.8 fold
- solubility at 72 h ([10]; Capryol 90, oil or lipid, read-out: Solubility in Capryol 90): 4450 ± 310 µg/mL (≈ 9.32 mM)
- solubility at 72 h ([10]; Cremophor EL, organic solvent or mixture, read-out: Solubility in Cremophor EL): 9050 ± 40 µg/mL (≈ 19 mM)
- solubility at 72 h ([10]; Labrafil M, oil or lipid, read-out: Solubility in Labrafil M): 6580 ± 190 µg/mL (≈ 13.8 mM)
- solubility at 72 h ([10]; Lauroglycol FCC, oil or lipid, read-out: Solubility in Lauroglycol FCC): 4590 ± 50 µg/mL (≈ 9.61 mM)
- solubility at 72 h ([10]; Maisine oil, oil or lipid, read-out: Solubility in Maisine oil): 320 ± 300 µg/mL (≈ 0.67 mM)
- solubility at 72 h ([10]; Oleic acid, oil or lipid, read-out: Solubility in Oleic acid): 920 ± 40 µg/mL (≈ 1.93 mM)
- solubility at 72 h ([10]; Peceol, oil or lipid, read-out: Solubility in Peceol): 2170 ± 70 µg/mL (≈ 4.54 mM)
- solubility at 72 h ([10]; Polypropylene glycol, organic solvent or mixture, read-out: Solubility in Polypropylene glycol): 3790 ± 620 µg/mL (≈ 7.94 mM)
- solubility at 72 h ([10]; Transcutol HP, organic solvent or mixture, read-out: Solubility in Transcutol HP): 14100 ± 140 µg/mL (≈ 29.5 mM)
- solubility at 72 h ([10]; Tween 80, organic solvent or mixture, read-out: Solubility in Tween 80): 9170 ± 70 µg/mL (≈ 19.2 mM)
- cytotoxicity at highest tested concentration (Caco-2 cells [11]): no significant cytotoxicity
- BCS class [12]: BCS Class IV

Compound: Cc1cc(CNc2cccc(C(=O)OC(C)C)c2)ccc1OCc1ccc(F)cc1 [A190-PD-154, Isopropyl 3-((4-((4-Fluorobenzyl)oxy)-3-Methylbenzyl)amino)benzoate]
- drug remaining at 2 h [5]: 10%
- half-life at 100 μM [6]: 1.4 h
- Prodrug bioconversion half-life (Rabbit plasma) [6]: 1.4 h
- half-life at 100 μM [7]: 6.8 h
- Prodrug bioconversion half-life (Rat plasma) [7]: 6.8 h
